The values below come from US20250197420A1, “MACROCYCLIC COMPOUNDS, COMPOSITIONS, AND METHODS OF USING THEREOF” (Sionna Therapeutics Inc., priority 2022, published 2025).

The test system of experiment [1] is Primary human bronchial epithelial cells from a ΔF508 homozygous CF donor (CF-HBE cells). Put plainly: TECC24 recording of CFTR-mediated transepithelial chloride transport, AUC fold over benchmark VX-809 @10 μM. In kind it is cell-based. The note with it: 48 hours incubation, AUC of forskolin-stimulated IEQ. On the procedure: The effects of a test agent on CFTR-mediated transepithelial chloride transport is measured using TECC24 recording analysis. Test agents are solubilized in DMSO. Solubilized test agents are mixed with incubation medium containing DMEM/F12, Ultroser G (0.5%; Crescent Chemical, catalog #67042), Hyclone Fetal Clone II (2%; GE Healthcare, catalog #SH30066.02), bovine brain extract (0.25%; Lonza, catalog #CC-4098), insulin ([…]), IL-13 (10 ng/mL), hydrocortisone (20 nM), transferrin ([…]), triiodothyronine (500 nM), ethanolamine (250 nM), epinephrine (1.5 μM), phosphoethanolamine (250 nM), and retinoic acid (10 nM). Primary human bronchial epithelial cells from a ΔF508 homozygous CF donor (CF-HBE cells; from University of North Carolina Cystic Fibrosis Tissue Procurement Center), grown on Transwell HTS 24-well cell culture inserts (Costar, catalog #3378), are exposed to test agents or controls dissolved in incubation medium. The CF-HBE cells are cultured at 36.5° C. for 48 hours before TECC24 recordings are performed in the presence or absence of test agent, a positive control or vehicle (DMSO).
Following incubation, the transwell cell culture inserts containing the test agent or control-treated CF-HBE cells are loaded onto a TECC24 apparatus (TECC v7 or MTECC v2; EP Design) to record the transepithelial voltage (VT) and resistance (TEER) using 4 AgCl electrodes per well configured in current-clamp mode. The apical and basolateral bath solutions both contain (in mM) 140 NaCl, 5 KCl, 2 CaCl2), 1 MgCl2, 10 Hepes, and 10 glucose (adjusted to pH 7.4 with NaOH). To inhibit basal Na+ absorption, the ENaC inhibitor benzamil (10 μM) is added to the bath. Then, the adenylate cyclase activator, forskolin (10 μM), is added to the bath to activate CFTR. The forskolin-stimulated Cl− transport is halted by addition of CFTR inhibitor-172 (20 μM) to the bath at the end of the experiment to confirm specificity. VT and TEER recordings are digitally acquired at routine intervals using TECC or MTECC software (EP Design). VT and TEER are transformed into equivalent transepithelial Cl− current (IEQ), and the Area Under the Curve (AUC) of the IEQ time course between forskolin and CFTR inhibitor-172 addition is generated using Excel (Microsoft). Efficacy is expressed as the ratio of the test agent AUC divided by vehicle AUC. EC50s based on AUC are generated using the non-linear regression log(agonist) vs. response function in Prism software (Graphpad) with HillSlope fixed=1.
If a test agent increases the AUC of the forskolin-stimulated IEQ relative to VX-809 in CF-HBE cells, and this increase is inhibited by CFTR inhibitor-172, then the test agent is considered a CFTR corrector. TECC assay efficacy is expressed as the ratio of the test agent AUC divided by VX-809 AUC. As set forth in Table 2 below, a TECC value less than 3 is marked “A”; a value between 3 and 6 is marked “B”; a value between 6 and 20 is marked “C”.

Experiment [2] concerns the target T1, Purified recombinant NBD1 (Homo sapiens, UniProt P13569).
T1 construct: Purified recombinant NBD1 was produced using previously described methods; made in house
Put plainly: Aggregation analysis using differential static light scattering (DSLS): thermal stability of NBD1. It counts as binding. The note with it: NBD1 0.2 mg/ml; Tagg of compound well minus average Tagg of DMSO control wells. The method, boiled down:
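ΔTagg is compound-well aggregation temperature minus the DMSO-control mean, each Tagg being the inflection point of light scattering measured by DSLS during a 1 °C/min ramp up to 70 °C. The protein was purified NBD1 (0.2 mg/ml) in pH 7.6 buffer containing 2 mM ATP, 5 mM MgCl2 and 1% glycerol.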

Each structure is given as a SMILES string.

T1 sequence (P13569 423-646 limits assumed): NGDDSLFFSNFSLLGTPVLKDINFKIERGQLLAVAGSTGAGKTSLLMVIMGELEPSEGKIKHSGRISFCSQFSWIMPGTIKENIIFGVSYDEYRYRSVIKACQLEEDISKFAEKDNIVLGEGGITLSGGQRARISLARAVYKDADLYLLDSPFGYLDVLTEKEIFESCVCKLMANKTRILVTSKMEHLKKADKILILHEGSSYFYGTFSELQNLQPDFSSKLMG

As to `CC1(c2cccc(CCC(=O)O)c2)CCCCCC(=O)CNC(=O)Cc2c(c(F)cc3[nH]ccc23)Oc2ccc(F)c(c2)-c2ncc1[nH]2` (stereo not shown) [Compound 109, 3-[3-(24,30-Difluoro-6-methyl-12,15-dioxo-26-oxa-3,14,21,32-tetrazapentacyclo[25.3.1.12,5.017,25.018,22]dotriaconta-1(31),2,4,17,19,22,24,27,29-nonaen-6-yl)phenyl]propanoic acid], the “TECC (test agent AUC divided by VX-809 AUC)” value in experiment [1] is “B (a value between 3 and 6 is marked “B”)”. Besides, the “DSLS (ΔTagg)” value in experiment [2] was “C (a value greater than 10 °C and less than or equal to 25 °C is marked “C”)”.
For `CN1CC(C)(C)CCCCC(C)(c2cccc(CCC(=O)O)c2)c2cnc([nH]2)-c2cc(ccc2F)Oc2c(F)cc3[nH]ccc3c2CCC1=O` (stereo not shown) [Compound 61, 3-[3-(24,30-Difluoro-6,11,11,13-tetramethyl-14-oxo-26-oxa-3,13,21,32-tetrazapentacyclo[25.3.1.12,5.017,25.018,22]dotriaconta-1(31),2,4,17,19,22,24,27,29-nonaen-6-yl)phenyl]propanoic acid], the “TECC (test agent AUC divided by VX-809 AUC)” value in experiment [1] is “B (a value between 3 and 6 is marked “B”)”. The “DSLS (ΔTagg)” value in experiment [2] is “C (a value greater than 10 °C and less than or equal to 25 °C is marked “C”)”.
Take `CC1(C)CNC(=O)CCc2c(c(F)cc3[nH]ccc23)Oc2ccc(F)c(c2)-c2ncc([nH]2)C(C)(c2cccc(CCC(=O)O)c2)CCOC1` (single isomer, unassigned) [Compound 67A, 3-[3-(24,30-difluoro-6,11,11-trimethyl-14-oxo-9,26-dioxa-3,13,21,32-tetrazapentacyclo[25.3.1.12,5.017,25.018,22]dotriaconta-1(31),2,4,17,19,22,24,27,29-nonaen-6-yl)phenyl]propanoic acid]: the “TECC (test agent AUC divided by VX-809 AUC)” value in experiment [1] was “C (a value between 6 and 20 is marked “C”)”. The “DSLS (ΔTagg)” value in experiment [2] is “C (a value greater than 10 °C and less than or equal to 25 °C is marked “C”)”.
Turning to `CC1(c2cccc(CCC(=O)O)c2)CNC(=O)OCCCCc2c(c(F)cc3[nH]ccc23)Oc2ccc(F)c(c2)-c2ncc1[nH]2` (stereo not shown) [Compound 83, 3-[3-(22,28-Difluoro-6-methyl-9-oxo-10,24-dioxa-3,8,19,30-tetrazapentacyclo[23.3.1.12,5.015,23.016,20]triaconta-1(29),2,4,15,17,20,22,25,27-nonaen-6-yl)phenyl]propanoic acid], the “TECC (test agent AUC divided by VX-809 AUC)” value in experiment [1] was “A (a TECC value less than 3 is marked “A”)”. Besides, in experiment [2], the “DSLS (ΔTagg)” value was “A (an ΔTagg value less than or equal to 5 °C is marked “A”)”.
For `CN1CC(C)(C)CCCC(C)(c2ccc(CCC(=O)O)cc2)c2cnc([nH]2)-c2cc(ccc2F)Oc2c(F)cc3[nH]ccc3c2CCC1=O` (single isomer, unassigned) [Compound 47A, 3-[4-(23,29-Difluoro-6,10,10,12-tetramethyl-13-oxo-25-oxa-3,12,20,31-tetrazapentacyclo-[24.3.1.12,5.016,24.017,21]hentriaconta-1(30),2,4,16,18,21,23,26,28-nonaen-6-yl)phenyl]propanoic acid], in experiment [1], the “TECC (test agent AUC divided by VX-809 AUC)” value is reported as “A (a TECC value less than 3 is marked “A”)”. For the same molecule, in experiment [2], the “DSLS (ΔTagg)” value is “A (an ΔTagg value less than or equal to 5 °C is marked “A”)”.
For the molecule `CC1(C)CCC(C)(c2cccc(CCC(=O)O)c2)c2cnc([nH]2)-c2cc(ccc2F)Oc2c(F)cc3[nH]ccc3c2CCOC(=O)NC1` (stereo not shown) [Compound 92, 3-[3-(23,29-Difluoro-6,9,9-trimethyl-12-oxo-13,25-dioxa-3,11,20,31-tetrazapentacyclo[24.3.1.12,5.016,24.017,21]hentriaconta-1(30),2,4,16(24),17(21),18,22,26,28-nonaen-6-yl)phenyl]propanoic acid], the “TECC (test agent AUC divided by VX-809 AUC)” value in experiment [1] is “C (a value between 6 and 20 is marked “C”)”. In experiment [2], the “DSLS (ΔTagg)” value was “C (a value greater than 10 °C and less than or equal to 25 °C is marked “C”)”.
Take `CN1CCC(C)(C)CCC(c2cccc(CCC(=O)O)c2F)c2cnc([nH]2)-c2cc(ccc2F)Oc2c(F)cc3[nH]ccc3c2CCC1=O` (stereo not shown) [Compound 30, 3-[3-(23,29-Difluoro-9,9,12-trimethyl-13-oxo-25-oxa-3,12,20,31-tetrazapentacyclo[24.3.1.12,5.016,24.017,21]hentriaconta-1(30),2,4,16,18,21,23,26,28-nonaen-6-yl)-2-fluoro-phenyl]propanoic acid]: the “TECC (test agent AUC divided by VX-809 AUC)” value in experiment [1] is “A (a TECC value less than 3 is marked “A”)”. Also, the “DSLS (ΔTagg)” value in experiment [2] is “B (a value above 5 °C and less than or equal to 10 °C is marked “B”)”.
`CC1(C)CCCCC(C)(c2cccc(CCC(=O)O)c2)c2cnc([nH]2)-c2cc(ccc2F)Oc2c(F)cc3[nH]ccc3c2COC(=O)N1` (single isomer, unassigned) [Compound 93B, 3-[3-(23,29-difluoro-6,11,11-trimethyl-13-oxo-14,25-dioxa-3,12,20,31-tetrazapentacyclo[24.3.1.12,5.016,24.017,21]hentriaconta-1(30),2,4,16,18,21,23,26,28-nonaen-6-yl)phenyl]propanoic acid]: the “TECC (test agent AUC divided by VX-809 AUC)” value in experiment [1] is given as “A (a TECC value less than 3 is marked “A”)”. Further, the “DSLS (ΔTagg)” value in experiment [2] is “C (a value greater than 10 °C and less than or equal to 25 °C is marked “C”)”.
Turning to `CC1(c2cccc(CCC(=O)O)c2)CCCC(O)CNC(=O)CCc2c(c(F)cc3[nH]ccc23)Oc2ccc(F)c(c2)-c2ncc1[nH]2` (stereo not shown) [Compound 106, 3-[3-(23,29-Difluoro-10-hydroxy-6-methyl-13-oxo-25-oxa-3,12,20,31-tetrazapentacyclo[24.3.1.12,5.016,24.017,21]hentriaconta-1(30),2,4,16,18,21,23,26,28-nonaen-6-yl)phenyl]propanoic acid], the “TECC (test agent AUC divided by VX-809 AUC)” value in experiment [1] was “B (a value between 3 and 6 is marked “B”)”. In experiment [2], the “DSLS (ΔTagg)” value is “C (a value greater than 10 °C and less than or equal to 25 °C is marked “C”)”.
Regarding `CN1CC(C)(C)CCCC[C@](C)(c2cccc(CCC(=O)O)c2)c2nc(n(C)n2)-c2cc(ccn2)Oc2c(F)cc3[nH]ccc3c2CC1=O` [Compound 123, 3-[3-[(6R)-23-Fluoro-3,6,11,11,13-pentamethyl-14-oxo-25-oxa-3,4,13,20,29,31-hexazapentacyclo[24.3.1.12,5.016,24.017,21]hentriaconta-1(30),2(31),4,16,18,21,23,26,28-nonaen-6-yl]phenyl]propanoic acid], in experiment [1], the “TECC (test agent AUC divided by VX-809 AUC)” value is reported as “A (a TECC value less than 3 is marked “A”)”. The “DSLS (ΔTagg)” value in experiment [2] was “C (a value greater than 10 °C and less than or equal to 25 °C is marked “C”)”.
Take `[2H]C([2H])([2H])n1nc2nc1-c1cc(ccc1F)Oc1c(F)cc3[nH]ccc3c1CCC(=O)NCC(C)(C)CCCC2(C)c1cccc(CCC(=O)O)c1` (single isomer, unassigned) [Compound 76B, 3-[3-[23,29-difluoro-6,10,10-trimethyl-13-oxo-3-(trideuteriomethyl)-25-oxa-3,4,12,20,31-pentazapentacyclo[24.3.1.12,5.016,24.017,21]hentriaconta-1(30),2(31),4,16,18,21,23,26,28-nonaen-6-yl]phenyl]propanoic acid]: the “TECC (test agent AUC divided by VX-809 AUC)” value in experiment [1] was “C (a value between 6 and 20 is marked “C”)”. The “DSLS (ΔTagg)” value in experiment [2] is “C (a value greater than 10 °C and less than or equal to 25 °C is marked “C”)”.
